Key:
Type in all cases: biochemical
KRAS WT = molecular target: T1, KRAS WT (Homo sapiens, UniProt P01116); experiment: HTRF KRAS-SOS1 interaction assay, wildtype KRAS; conditions: binned ≤2 μM / >2 μM, read-out: Inhibition of KRAS WT (IC50)
T1 construct: made in house; host or cells: E. coli, e.g. BL21 (DE3)
Source text: (§1) This assay can be also used to assess a selective inhibition or reduction of signaling output of a mutant Ras protein relative to a wildtype, or relative to a different mutant Ras protein. For example, the equilibrium interaction of wildtype KRAS or K-Ras mutant (e.g., wildtype or a mutant thereof) with SOS1 (e.g., hSOS1) can be assessed as a proxy or an indication for the ability of a subject compound to bind and inhibit Ras protein. The HTRF assay detects from (i) a fluorescence resonance energy transfer (FRET) donor (e.g., antiGST-Europium) that is bound to GST-tagged K-Ras mutant to (ii) a FRET acceptor (e.g., anti-6His-XL665) bound to a His-tagged hSOS1.
(§2) The assay buffer can contain ˜5 mM HEPES pH 7.4, ˜150 mM NaCl, ˜1 mM DTT, 0.05% BSA and 0.0025% (v/v) Igepal. A Ras working solution is prepared in an assay buffer containing typically a suitable amount of the protein construct (e.g., GST-tagged K-Ras mutant) and the FRET donor (e.g., antiGST-Eu (K) from Cisbio, France). A SOS1 working solution is prepared in an assay buffer containing suitable amount of the protein construct (e.g., His-hSOS1) and the FRET acceptor (e.g., anti-6His-XL665 from Cisbio, France). A suitable amount of the protein construct will depend on the range of activity or range of IC50 values being detected or under investigation. For detecting an IC50 within a range of 500 nM, the protein constructs of the same range of molarity can be utilized.
(§3) A fixed volume of DMSO with or without test compound is transferred into a 384-well plate. Ras working solution is added to all wells of the test plate. SOS1 working solution is added to all wells except for those that are subsequently filled with inhibitor control solution. Upon incubation for about 10 minutes or longer, the fluorescence is measured with a M1000Pro plate reader (Tecan) using HTRF detection (excitation 337 nm, emission 1:620 nm, emission 2:665 nm). Compounds are tested in duplicate at different concentrations (for example, 10 μM, 2.5 μM, 0.63 μM, 0.16 μM, 0.04 μM, 0.01 μM test compound). The ratiometric data (i.e., emission 2 divided by emission 1) is used to calculate IC50 values against Ras using GraphPad Prism (GraphPad software). Signaling output measured in terms of IC50 values can be obtained and a ratio of IC50 against one mutant relative to another mutant can be calculated.

KRAS G12V = molecular target: T2, KRAS G12V (Homo sapiens, UniProt P01116, G12V); experiment: HTRF KRAS-SOS1 interaction assay, KRAS G12V; conditions: binned ≤2 μM / >2 μM, read-out: Inhibition of KRAS G12V (IC50)
T2 construct: made in house; host or cells: E. coli, e.g. BL21 (DE3)
T2 sequence (P01116 1-188 isoform P01116-2 G12V): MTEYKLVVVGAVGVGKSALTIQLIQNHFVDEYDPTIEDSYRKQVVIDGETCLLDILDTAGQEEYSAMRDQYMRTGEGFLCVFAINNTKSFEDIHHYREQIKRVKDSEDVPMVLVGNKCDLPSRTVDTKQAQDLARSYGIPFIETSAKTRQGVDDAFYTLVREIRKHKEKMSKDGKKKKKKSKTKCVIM
Source text: as §1, §2, §3

KRAS G12S = molecular target: T3, KRAS G12S (Homo sapiens, UniProt P01116, G12S); experiment: HTRF KRAS-SOS1 interaction assay, KRAS G12S; conditions: binned ≤2 μM / >2 μM, read-out: Inhibition of KRAS G12S (IC50)
T3 construct: made in house; host or cells: E. coli, e.g. BL21 (DE3)
T3 sequence (P01116 1-188 isoform P01116-2 G12S): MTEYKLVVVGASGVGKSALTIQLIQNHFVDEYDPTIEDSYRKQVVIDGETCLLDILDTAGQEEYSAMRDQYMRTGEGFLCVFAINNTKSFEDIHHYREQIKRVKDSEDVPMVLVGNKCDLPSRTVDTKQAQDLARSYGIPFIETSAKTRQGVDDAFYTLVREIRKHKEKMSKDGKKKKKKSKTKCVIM
Source text: as §1, §2, §3

Measured: IC50

T1 sequence (P01116 1-188 isoform P01116-2): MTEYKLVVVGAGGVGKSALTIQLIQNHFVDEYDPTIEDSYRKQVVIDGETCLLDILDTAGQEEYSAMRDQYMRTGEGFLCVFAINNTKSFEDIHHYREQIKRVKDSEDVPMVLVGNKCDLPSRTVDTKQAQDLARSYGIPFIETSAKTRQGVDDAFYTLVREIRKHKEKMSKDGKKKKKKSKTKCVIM

C#C[C@H]1COc2c(Cl)c(-c3ccc(F)c4sc(N)c(C#N)c34)c(F)c3nc(OC[C@@]45CCCN4C[C@H](F)C5)nc(c23)N1C(C)c1cccnc1N (single isomer, unassigned) [Compound 664]
≤ 2 µM: all assays above

C=CC[C@H](c1cccnc1N)N1CCOc2c(C(F)(F)F)c(-c3ccc(F)c4sc(N)c(C#N)c34)c(F)c3nc(OC[C@@]45CCCN4C[C@H](F)C5)nc1c23 (single isomer, unassigned) [Compound 616]
≤ 2 µM: all assays above

N#Cc1c(N)sc2c(F)ccc(-c3c(C(F)(F)F)c4c5c(nc(OC[C@@]67CCCN6C[C@H](F)C7)nc5c3F)N([C@H](CC3CCOCC3)c3cccnc3N)CCO4)c12 (single isomer, unassigned) [Compound 642]
≤ 2 µM: all assays above

CC(c1cncnc1N)N1CCOc2c(Cl)c(-c3ccc(F)c4sc(N)c(C#N)c34)c(F)c3nc(OC[C@@]45CCCN4C[C@H](F)C5)nc1c23 (single isomer, unassigned) [Compound 646]
≤ 2 µM: all assays above

C[C@H](c1cccnc1N)N1CCOc2c(Cl)c(-c3ccc(F)c4sc(N)c(C#N)c34)c(F)c3nc(OCC45CCCN4C[C@H](OCCCP(C)(C)=O)C5)nc1c23 (single isomer, unassigned) [Compound 677]
≤ 2 µM: all assays above

C[C@H]1CN([C@@H](c2cccnc2N)C(F)F)c2nc(OC[C@@]34CCCN3C[C@H](F)C4)nc3c(F)c(-c4ccc(F)c5sc(N)c(C#N)c45)c(C(F)(F)F)c(c23)O1 (single isomer, unassigned) [Compound 879]
≤ 2 µM: all assays above

N#Cc1c(N)sc2c(F)ccc(-c3c(C(F)(F)F)c4c5c(nc(OC[C@@]67CCCN6C[C@H](F)C7)nc5c3F)N([C@H](CCN3CCOCC3)c3cccnc3N)CCO4)c12 (single isomer, unassigned) [Compound 685]
≤ 2 µM: all assays above

CP(C)(=O)CC[C@H](c1cccnc1N)N1CCOc2c(C(F)(F)F)c(-c3ccc(F)c4sc(N)c(C#N)c34)c(F)c3nc(OC[C@@]45CCCN4C[C@H](F)C5)nc1c23 (single isomer, unassigned) [Compound 671]
≤ 2 µM: all assays above

N#Cc1c(N)sc2c(F)ccc(-c3c(C(F)(F)F)c4c5c(nc(OC[C@@]67CCCN6C[C@H](F)C7)nc5c3F)N([C@H](CC3CC(F)(F)C3)c3cccnc3N)CCO4)c12 (single isomer, unassigned) [Compound 686]
≤ 2 µM: all assays above

C[C@H](c1cccnc1N)N1CCOc2c(Cl)c(-c3cccc4sc(N)c(C#N)c34)c(F)c3nc(OC[C@@]45CCCN4CC(=C(F)F)C5)nc1c23 (single isomer, unassigned) [Compound 660]
≤ 2 µM: all assays above

C[C@H](c1cccnc1N)N1CCOc2c(C(F)(F)F)c(-c3ccc(F)c4sc(N)c(C#N)c34)c(F)c3nc(OC[C@@]45CCCN4CC(C#N)C5)nc1c23 (single isomer, unassigned) [Compound 663]
≤ 2 µM: all assays above

CS(=O)(=O)CCC[C@H](c1cccnc1N)N1CCOc2c(C(F)(F)F)c(-c3ccc(F)c4sc(N)c(C#N)c34)c(F)c3nc(OC[C@@]45CCCN4C[C@H](F)C5)nc1c23 (single isomer, unassigned) [Compound 629]
≤ 2 µM: all assays above

CC(c1cccnc1N)N1c2nc(OC[C@@]34CCCN3C[C@H](F)C4)nc3c(F)c(-c4ccc(F)c5sc(N)c(C#N)c45)c(Cl)c(c23)OC[C@@H]1CC#N (mixture of isomers) [Compound 615, 2-amino-4-((5S)-4-(1-(2-aminopyridin-3-yl)ethyl)-8-chloro-5-(cyanomethyl)-10-fluoro-2-(((2R,7aS)-2-fluorotetrahydro-1H-pyrrolizin-7a (5H)-yl)methoxy)-5,6-dihydro-4H-[1,4]oxazepino[5,6,7-de]quinazolin-9-yl)-7-fluorobenzo[b]thiophene-3-carbonitrile]
≤ 2 µM: all assays above

C[C@H](c1cccnc1N)N1CCOc2c(Cl)c(-c3cccc4sc(N)c(C#N)c34)c(F)c3nc(OC[C@@]45CCCN4C[C@H](F)C5)nc1c23 (single isomer, unassigned) [Compound 668]
≤ 2 µM: all assays above

N#Cc1c(N)sc2c(F)ccc(-c3c(Cl)c4c5c(nc(OC[C@@]67CCCN6C[C@H](F)C7)nc5c3F)N(C(c3cccnc3N)C(F)F)CCO4)c12 (single isomer, unassigned) [Compound 618]
≤ 2 µM: all assays above

N#Cc1c(N)sc2c(F)ccc(-c3c(Cl)c4c5c(nc(OC[C@@]67CCCN6C[C@H](F)C7)nc5c3F)N(C(CC(F)F)c3cccnc3N)CCO4)c12 (mixture of isomers) [Compound 681, 2-amino-4-(4-(1-(2-aminopyridin-3-yl)-3,3-difluoropropyl)-8-chloro-10-fluoro-2-(((2R,7aS)-2-fluorotetrahydro-1H-pyrrolizin-7a(5H)-yl)methoxy)-5,6-dihydro-4H-[1,4]oxazepino[5,6,7-de]quinazolin-9-yl)-7-fluorobenzo[b]thiophene-3-carbonitrile]
≤ 2 µM: all assays above

CC(c1cccnc1N)N1CCOc2c(Cl)c(-c3ccc(F)c4sc(N)c(C#N)c34)c(F)c3nc(OC[C@@]45CCCN4C[C@H](F)C5)nc1c23 (single isomer, unassigned) [Compound 656]
≤ 2 µM: all assays above

N#Cc1c(N)sc2c(F)ccc(-c3c(C(F)(F)F)c4c5c(nc(OC[C@@]67CCCN6C[C@H](F)C7)nc5c3F)N([C@H](CCC3COCCO3)c3cccnc3N)CCO4)c12 (single isomer, unassigned) [Compound 624]
≤ 2 µM: all assays above

CO/N=C1\CN2CCC[C@@]2(COc2nc3c4c(c(Cl)c(-c5ccc(F)c6sc(N)c(C#N)c56)c(F)c4n2)OCCN3[C@H](C)c2cccnc2N)C1 (single isomer, unassigned) [Compound 607]
≤ 2 µM: all assays above

CCC(c1cccnc1N)N1CCOc2c(Cl)c(-c3ccc(F)c4sc(N)c(C#N)c34)c(F)c3nc(OC[C@@]45CCCN4C[C@H](F)C5)nc1c23 (mixture of isomers) [Compound 643, 2-amino-4-(4-(1-(2-aminopyridin-3-yl)propyl)-8-chloro-10-fluoro-2-(((2R,7aS)-2-fluorotetrahydro-1H-pyrrolizin-7a(5H)-yl)methoxy)-5,6-dihydro-4H-[1,4]oxazepino[5,6,7-de]quinazolin-9-yl)-7-fluorobenzo[b]thiophene-3-carbonitrile]
≤ 2 µM: all assays above

N#Cc1c(N)sc2c(F)ccc(-c3c(C(F)(F)F)c4c5c(nc(OC[C@@]67CCCN6C[C@H](F)C7)nc5c3F)N([C@H](CCC3CCOCC3)c3cccnc3N)CCO4)c12 (single isomer, unassigned) [Compound 611]
≤ 2 µM: all assays above

N#Cc1c(N)sc2c(F)ccc(-c3c(Cl)c4c5c(nc(OC[C@@]67CCCN6C[C@H](F)C7)nc5c3F)N(C(/C=C\C(F)(F)F)c3cccnc3N)CCO4)c12 (single isomer, unassigned) [Compound 632]
≤ 2 µM: all assays above

C=Cc1c(-c2ccc(F)c3sc(N)c(C#N)c23)c(F)c2nc(OC[C@@]34CCCN3C[C@H](F)C4)nc3c2c1OCCN3[C@H](C)c1cccnc1N (single isomer, unassigned) [Compound 603]
≤ 2 µM: all assays above

— US12668600B2 (Kumquat Biosciences Inc., priority 2023, dated 2026)
